ChEMBL document CHEMBL3785005, “Novel triazole hybrids of myrrhanone C, a natural polypodane triterpene: Synthesis, cytotoxic activity and cell based studies” (Eur J Med Chem, 2016)
pIC50: −log10 of the molar value. Activity calls are given as the source filed them. The calls are words filed in the database; no cut-off is given here.

How the values were obtained:
A549 [1] = assay: Induction of apoptosis in human A549 cells assessed as presence of apoptotic bodies at 5 to 10 uM after 48 hrs by Hoechst 33258 staining based fluorescence microscopic analysis; type: functional, cell-based
A549 [2] = assay: Induction of apoptosis in human A549 cells assessed as mitochondrial membrane potential at 10 uM after 48 hrs by JC-1 staining based flow cytometry (reference value: 92.5%); type: functional
A549 [3] = assay: Induction of apoptosis in human A549 cells assessed as mitochondrial membrane potential at 5 uM after 48 hrs by JC-1 staining based flow cytometry (reference value: 92.5%); type: functional
HeLa = assay: Cytotoxicity against human HeLa cells assessed as cell viability after 48 hrs by MTT assay; type: functional, cell-based
MCF7 = assay: Cytotoxicity against human MCF7 cells assessed as cell viability after 48 hrs by MTT assay; type: functional, cell-based; conditions: MCF7, 48 h
A549 [4] = assay: Cytotoxicity against human A549 cells assessed as cell viability after 48 hrs by MTT assay; type: functional, cell-based; conditions: A549, 48 h
[5] = Cytotoxicity against human DU145 cells assessed as cell viability after 48 hrs by MTT assay; type: functional, cell-based; conditions: DU-145, 48 h
HepG2 = assay: Cytotoxicity against human HepG2 cells assessed as cell viability after 48 hrs by MTT assay; type: functional, cell-based; conditions: HepG2, 48 h
A549 [6] = assay: Cell cycle arrest in human A549 cells assessed as accumulation at sub G1 phase at 5 uM after 48 hrs by propidium iodide staining based flow cytometry (reference value: 0.76%); type: functional
A549 [7] = assay: Cell cycle arrest in human A549 cells assessed as accumulation at sub G1 phase at 10 uM after 48 hrs by propidium iodide staining based flow cytometry (reference value: 0.76%); type: functional
A549 [8] = assay: Cell cycle arrest in human A549 cells assessed as accumulation at G0/G1 phase at 5 uM after 48 hrs by propidium iodide staining based flow cytometry (reference value: 80.19%); type: functional
A549 [9] = assay: Cell cycle arrest in human A549 cells assessed as accumulation at G0/G1 phase at 10 uM after 48 hrs by propidium iodide staining based flow cytometry (reference value: 80.19%); type: functional
A549 [10] = assay: Cell cycle arrest in human A549 cells assessed as accumulation at S phase at 5 uM after 48 hrs by propidium iodide staining based flow cytometry (reference value: 3.51%); type: functional
A549 [11] = assay: Cell cycle arrest in human A549 cells assessed as accumulation at S phase at 10 uM after 48 hrs by propidium iodide staining based flow cytometry (reference value: 3.51%); type: functional
A549 [12] = assay: Cell cycle arrest in human A549 cells assessed as accumulation at G2/M phase at 5 uM after 48 hrs by propidium iodide staining based flow cytometry (reference value: 14.07%); type: functional
A549 [13] = assay: Cell cycle arrest in human A549 cells assessed as accumulation at G2/M phase at 10 uM after 48 hrs by propidium iodide staining based flow cytometry (reference value: 14.07%); type: functional
A549 [14] = assay: Induction of apoptosis in human A549 cells assessed as cytoplasmic condensation at 5 to 10 uM after 48 hrs by Hoechst 33258 staining based fluorescence microscopic analysis; type: functional, cell-based
A549 [15] = assay: Induction of apoptosis in human A549 cells assessed as nuclear fragmentation at 5 to 10 uM after 48 hrs by Hoechst 33258 staining based fluorescence microscopic analysis; type: functional, cell-based
A549 [16] = assay: Induction of apoptosis in human A549 cells assessed as viable cells at 5 uM after 48 hrs by Annexin V-FITC/propidium iodide staining based flow cytometry (reference value: 87.93%); type: functional; conditions: A549, 48 h, read-out: Activity
A549 [17] = assay: Induction of apoptosis in human A549 cells assessed as viable cells at 10 uM after 48 hrs by Annexin V-FITC/propidium iodide staining based flow cytometry (reference value: 87.93%); type: functional; conditions: A549, 48 h, read-out: Activity
A549 [18] = assay: Induction of apoptosis in human A549 cells assessed as early apoptotic cells at 5 uM after 48 hrs by Annexin V-FITC/propidium iodide staining based flow cytometry (reference value: 5.19%); type: functional
A549 [19] = assay: Induction of apoptosis in human A549 cells assessed as early apoptotic cells at 10 uM after 48 hrs by Annexin V-FITC/propidium iodide staining based flow cytometry (reference value: 5.19%); type: functional
A549 [20] = assay: Induction of apoptosis in human A549 cells assessed as late apoptotic cells at 5 uM after 48 hrs by Annexin V-FITC/propidium iodide staining based flow cytometry (reference value: 5.19%); type: functional
A549 [21] = assay: Induction of apoptosis in human A549 cells assessed as late apoptotic cells at 10 uM after 48 hrs by Annexin V-FITC/propidium iodide staining based flow cytometry (reference value: 5.19%); type: functional
A549 [22] = assay: Induction of apoptosis in human A549 cells assessed as necrotic cells at 5 uM after 48 hrs by Annexin V-FITC/propidium iodide staining based flow cytometry (reference value: 1.68%); type: functional
A549 [23] = assay: Induction of apoptosis in human A549 cells assessed as necrotic cells at 10 uM after 48 hrs by Annexin V-FITC/propidium iodide staining based flow cytometry (reference value: 1.68%); type: functional

| SMILES | Activity (A549 [1]) | Activity (A549 [2]) [%] | Activity (A549 [3]) [%] | pIC50 (HeLa) | pIC50 (MCF7) | pIC50 (A549 [4]) | pIC50 [5] | pIC50 (HepG2) | Activity (A549 [6]) [%] | Activity (A549 [7]) [%] | Activity (A549 [8]) [%] | Activity (A549 [9]) [%] | Activity (A549 [10]) [%] | Activity (A549 [11]) [%] | Activity (A549 [12]) [%] | Activity (A549 [13]) [%] | Activity (A549 [14]) | Activity (A549 [15]) | viability at 5 µM (A549 [16]) [%] | viability at 10 µM (A549 [17]) [%] | further results |
| --- | --- | --- | --- | --- | --- | --- | --- | --- | --- | --- | --- | --- | --- | --- | --- | --- | --- | --- | --- | --- | --- |
| CC(C)=CCC/C(C)=C/CC/C(C)=C/CC[C@@H]1[C@@]2(C)CC/C(=N\OCc3cn(-c4ccccc4)nn3)C(C)(C)[C@@H]2CC[C@@]1(C)O | Active | 83.5 | 88.1 | 5.11 | 5.02 | 5.21 | 5.05 | 5.02 | 0.9 | 1.02 | 75.14 | 60.11 | 2.86 | 0.34 | 20 | 36.97 | Active | Active | 84.4 | 76.9 | Activity (A549 [18]): 5.23%; Activity (A549 [19]): 5.4%; Activity (A549 [20]): 9.59%; Activity (A549 [21]): 16.28%; Activity (A549 [22]): 0.81%; Activity (A549 [23]): 1.43% |
| COc1cc(OC)c(-n2cc(CO/N=C3\CC[C@]4(C)[C@@H](CC/C=C(\C)CC/C=C(\C)CCC=C(C)C)[C@](C)(O)CC[C@H]4C3(C)C)nn2)c(OC)c1 | Active | 84.1 | 88.7 | 4.89 | 4.83 | 5.09 | 4.95 | 4.85 | 0.73 | 1.14 | 76.47 | 65.77 | 3 | 0.36 | 18.52 | 31.32 | Active | Active | 86 | 77.4 | Activity (A549 [18]): 4.18%; Activity (A549 [19]): 5%; Activity (A549 [20]): 8.56%; Activity (A549 [21]): 15.83%; Activity (A549 [22]): 1.3%; Activity (A549 [23]): 1.8% |
